Source: paper PMC6406907, “A H2AX–CARP-1 Interaction Regulates Apoptosis Signaling Following DNA Damage” (Cancers, 2019)
No end group written: not given here.

Experiments:
[1] = system: CARP-1, phospho-JNK1/2, phospho-H2AX, PARP; assay: Western blot of CARP-1, phospho-JNK1/2, γH2AX, cleaved PARP in MDA-MB-468; format: cell-based, human
MDA-MB-231 HBC cells = details: MDA-MB-231, compared with untreated counterparts; ref [34]; cited from earlier work
DBC1 (CCAR2) = assay: Co-immunoprecipitation with Dbc1 (CCAR2); format: cell-based; details: Dbc1-expressing PT67 (NIH3T3 murine fibroblast subline) cells, anti-Flag IP
Method: (Clontech) were first transfected with recombinant PLNCX2/Flag-Dbc1 plasmid (10), and stable, neomycin-resistant sublines were generated and characterized for Dbc1 expression essentially as described by us before (5; [35]). The Dbc1 expressing PT67 cells were then separately transfected with pcDNA3 vector, pcDNA3-Gst, pcDNA3-Gst-H2AX, pcDNA3-EGFP, or pcDNA3-EGFP-H2AX (1–35) plasmids. Approximately 1mg of cell lysate from each of transfected, Dbc1-expressing, PT67 cells was subjected to immunoprecipitation using anti-Flag tag M2 antibodies (F1804, Sigma). The immunoprecipitates were then analyzed by WB by probing the membrane with anti-Gst (top autoradiograph), anti-p53 D2H90 rodent specific rabbit mAb (32532S; Cell Signaling; 2nd autoradiograph from top), or anti-Fag tag (for Dbc1) antibodies (3rd autoradiograph from top). The membranes containing […] of respective cell lysates (marked as whole cell lysates) were subsequently probed with anti-Gst tag (Bottom left autoradiograph) or anti-EGFP antibodies (Bottom right autoradiograph) to ascertain expression of transfected, Gst, Gst-tagged H2AX proteins, EGFP, and EGFP-H2AX (1–35) proteins. The presence of respective proteins is indicated by an arrowhead on the left side of each blot. Approximate location of various molecular weight markers is indicated on the right side of each blot. kDa, kilodalton.
© 2019 by the authors. […]

Gst-H2AX = assay: Gst-pulldown with Gst-H2AX; format: binding, human; details: E. coli-expressed, 4 °C, 2 h, WB anti-HA, Figure 5A
Method: (§1) Logarithmically growing cells were either untreated or treated with different agents for various time periods. The cells were lysed to prepare protein extracts. IP was carried out by incubating approximately 1 mg of the protein lysate with appropriate antibodies. The immunoprecipitates were then analyzed by SDS-PAGE, followed by WB with respective, interacting protein. For Gst-pulldown, Gst-H2AX or various His-TAT-HA-tagged CARP-1 peptides were generated in Escherichia coli (E. coli) BL21 cells essentially as described by us previously. Briefly, the competent E. coli BL-21 (DE3) pLysS cells were transformed separately with various recombinant pGEX-4T-1 or pTAT-HA constructs. The transformed cells were then subjected to selection by combined presence of ampicillin and chloramphenicol; various isolates for each transformation were obtained and bacterial lysates were characterized for expression of fusion peptides. Cells from each isolate were grown in 4 mL of LB medium containing ampicillin only until the optical density (OD)600 reached 0.4–0.8. Expression of fusion peptides was induced over 2–4 h incubation periods after Isopropyl β-D-1-thiogalactopyranoside (IPTG) addition. The cells were harvested, and pellets were stored at −80 °C overnight. […]

Gst-H2AX (1–35) = assay: Gst-pulldown with Gst-H2AX (1–35); format: binding, human; details: E. coli-expressed, 4 °C, 2 h, WB anti-HA, Figure 5B
Method: as §1

H2AX (1–35) peptide = target: T1, H2AX (1–35) peptide (Homo sapiens, UniProt P16104); assay: Surface plasmon resonance, CARP-1 peptide with H2AX (1–35) peptide; format: binding; details: SPR, PBST pH 7.4, 25 °C, 1:1 global fit
T1 construct: CARP-1 (636–650) and H2AX (1–35) peptides, each with ≥90% purity, were commercially synthesized; purchased
Method: Affinity purification of the Gst-tagged or His-tagged fusion proteins was carried out essentially following procedure previously described by us. Briefly, the bacteria expressing respective fusion protein were cultured in 500 mL of LB medium containing ampicillin until the OD600 reached 0.4–0.6. Protein expression was induced by addition of IPTG over an additional 2–4-h incubation at 37 °C. Cells were harvested, and pellets were stored overnight at −80 °C, and lysed in 4–5 mL of BPER lysis buffer containing DNAse I as detailed above. […] Fractions containing eluted fusion protein were pooled, and dialyzed overnight at 4 °C in 1–2 L of 1× Tris-buffered saline (BioRad, Hercules, CA, USA) with multiple buffer changes. Following measurement of protein concentration, the purified protein was aliquoted and snap-frozen in liquid N2 for storage. […]
Next, kinetics of CARP-1 binding with H2AX were determined by surface plasmon resonance (SPR) technology (Profacgen, Shirley, NY, USA). […] The signal changes after binding and washing (in AU) were recorded as the assay value. Selected protein-grafted regions in the SPR images were analyzed, and the average reflectivity variations of the chosen areas were plotted as a function of time. Real-time binding signals were recorded and analyzed using a data analysis module (DAM) obtained from Plexera Bioscience (Seattle, WA, USA). […]

For `Cc1cc(NC(=O)c2cccc(NC(=O)/C=C/CN(C)C)c2)ccc1Nc1nccc(-c2cccnc2)n1` [JNK-IN-8], the JNK activation ([1]; MDA-MB-468, 5 μM JNK-IN-8, WB) was “total loss of JNK activation”, the “levels of CARP-1” value ([1]; MDA-MB-468, combination of JNK-IN-8 (5 μM) with Adriamycin, WB) was “elevated levels of CARP-1” and the γH2AX ([1]; MDA-MB-468, combined presence of JNK-IN-8 (5 μM) and Adriamycin, WB) was “reduced levels of γH2AX”. For the same molecule, the “levels of CARP-1” value ([1]; MDA-MB-468, single agent (JNK-IN-8 at 5 μM), WB) was “elevated levels of CARP-1” and the viabilities (MDA-MB-231 HBC cells) was “significantly reduced viabilities”.

For “H2AX (1–35): commercially synthesized H2AX (1–35) peptide; epitope of H2AX (tested as EGFP-tagged protein) (MSGRGKTGGKARAKAKSRSSRAGLQFPVGRVHRLL; UniProt P16104 1-35, looked up, fragment)”, the “interaction with DBC1” value (DBC1 (CCAR2)) was “does not interact”.

For “His-TAT-HA-CARP-1 (631–660): E. coli-expressed His-TAT-HA-tagged CARP-1 peptide (WSKLDPKTMKVNDLRKELESRALSSKGLKS; also: His, TAT and HA tags kept, end not given here)”, the “binding with Gst-H2AX protein” value (Gst-H2AX) was “bound with Gst-H2AX protein” and the “binding with Gst-H2AX (1–35)” value (Gst-H2AX (1–35)) was “bound with Gst-H2AX and Gst-H2AX (1–35) proteins”.

“WSKLDPKTMKVNDLRKELESRALSSKGLKS [CARP-1 (631–660)]” showed a kon (H2AX (1–35) peptide; read-out: Ka (association rate constant)) of 2320 M⁻¹ s⁻¹ and a koff (H2AX (1–35) peptide; read-out: Kd (dissociation rate constant)) of 0.000292 s⁻¹.
